According to PMC223355 (BMC Biochemistry, 2003):
Read-outs that look alike come from different tables or passages of the source.

What was measured:
[1] = molecular target: T1, recombinant human kynureninase (Homo sapiens, UniProt Q16719); conditions: cited from earlier work
T1 sequence (Q16719 1-465): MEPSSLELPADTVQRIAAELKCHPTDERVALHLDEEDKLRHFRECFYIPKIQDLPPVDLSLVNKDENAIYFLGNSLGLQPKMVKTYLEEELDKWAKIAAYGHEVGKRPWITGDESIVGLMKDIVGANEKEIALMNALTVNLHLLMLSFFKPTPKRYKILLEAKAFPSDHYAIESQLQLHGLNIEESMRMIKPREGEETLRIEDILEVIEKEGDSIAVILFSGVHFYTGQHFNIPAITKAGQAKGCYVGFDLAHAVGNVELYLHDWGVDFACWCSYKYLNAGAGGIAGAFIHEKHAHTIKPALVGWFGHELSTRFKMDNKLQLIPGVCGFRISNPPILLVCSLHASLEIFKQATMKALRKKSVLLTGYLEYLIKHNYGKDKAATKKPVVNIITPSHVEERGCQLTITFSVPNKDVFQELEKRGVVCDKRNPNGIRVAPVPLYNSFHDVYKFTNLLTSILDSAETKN

rat hepatic kynureninase = molecular target: T2, rat hepatic kynureninase (Rattus norvegicus, UniProt P70712); conditions: cited from earlier work
T2 sequence (P70712 1-464): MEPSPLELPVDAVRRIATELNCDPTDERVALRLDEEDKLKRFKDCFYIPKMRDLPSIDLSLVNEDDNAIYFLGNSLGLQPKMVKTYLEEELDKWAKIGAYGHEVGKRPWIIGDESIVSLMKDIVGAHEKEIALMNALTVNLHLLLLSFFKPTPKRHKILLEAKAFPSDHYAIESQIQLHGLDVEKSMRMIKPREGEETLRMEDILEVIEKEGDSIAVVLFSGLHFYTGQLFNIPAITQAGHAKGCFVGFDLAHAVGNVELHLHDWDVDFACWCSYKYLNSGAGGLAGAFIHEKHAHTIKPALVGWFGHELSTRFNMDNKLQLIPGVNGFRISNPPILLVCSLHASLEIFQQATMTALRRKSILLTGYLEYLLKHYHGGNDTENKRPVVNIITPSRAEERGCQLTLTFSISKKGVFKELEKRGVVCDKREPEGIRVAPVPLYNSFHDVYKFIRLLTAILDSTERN

kynureninase [2] = molecular target: T3, kynureninase (Pseudomonas fluorescens, UniProt P83788); conditions: as substrate of the Pseudomonas enzyme; cited from earlier work
T3 sequence (P83788 1-416): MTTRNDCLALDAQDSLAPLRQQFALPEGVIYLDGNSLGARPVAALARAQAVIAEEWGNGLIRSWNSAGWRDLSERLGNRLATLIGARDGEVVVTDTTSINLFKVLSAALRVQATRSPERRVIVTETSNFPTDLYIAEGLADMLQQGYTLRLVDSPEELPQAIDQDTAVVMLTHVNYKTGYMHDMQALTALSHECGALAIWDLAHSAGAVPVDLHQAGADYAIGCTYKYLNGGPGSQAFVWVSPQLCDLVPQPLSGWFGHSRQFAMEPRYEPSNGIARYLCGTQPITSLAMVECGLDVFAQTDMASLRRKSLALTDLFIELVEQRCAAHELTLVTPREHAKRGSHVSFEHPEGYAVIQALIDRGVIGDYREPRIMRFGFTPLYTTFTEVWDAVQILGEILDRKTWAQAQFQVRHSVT

[3] = molecular target: T1, recombinant human kynureninase; experiment: Inhibition / kinetics of recombinant human kynureninase; format: biochemical; conditions: as substrate of the human enzyme
kynureninase [4] = molecular target: T3, kynureninase; experiment: Inhibition / kinetics of tryptophan-induced bacterial kynureninase; format: biochemical

For `Nc1ccccc1C(=O)CC(N)C(=O)O` [kynurenine D-enantiomer, kynurenine], which Ki ([1]; human enzyme (by context)) is on record?
Its Ki is 12 µM.

Which Ki (rat hepatic kynureninase; rat enzyme (both mammalian enzymes), earlier report) does the source give for `Nc1c(O)cc(O)cc1C(=O)CCC(=O)O` [dihydroxydesamino derivative, 3,5-dihydroxydesaminokynurenine] here?
Its Ki is roughly 0.25 µM.

What about the Ki ([1]; recombinant human enzyme (both mammalian enzymes), earlier report) of the same compound?
Its Ki is roughly 0.25 µM.

For `Nc1ccccc1C(=O)C[C@H](N)C(=O)O` [L-kynurenine], which Km (kynureninase [2]) is on record?
The Km was 44.2 µM.

And the Km (rat hepatic kynureninase; as substrate of the rat enzyme, reported values, no reference given)?
The Km was 500 µM.

Which substrate activity [3] does the source give for `Nc1ccccc1C(=O)CC(N)C(=O)O` (centres unmarked) [kynurenine] here?
The substrate activity was “no appreciable substrate activity”.

Which Ki (kynureninase [4]; bacterial enzyme, unpublished results of the authors) does the source give for `Nc1ccccc1C(=O)CCC(=O)O` [desaminokynurenine] here?
Its Ki is 12 ± 3.1 µM.

And the type of inhibition (kynureninase [4]; bacterial kynureninase, Lineweaver-Burk and Dixon plots)?
Its type of inhibition is “mixed inhibitor”.
